Experimental data taken from patent US12152012B2, “BRAG2 inhibitors and applications thereof” (CENTRE NATIONAL DE LA RECHERCHE SCIENTIFIQUE, priority 2018, dated 2024).

Key:
Assay in all cases: Nucleotide exchange fluorescence kinetics in solution, Sec7 domain with truncated Arf1
Type in all cases: biochemical
Conditions in all cases: 50 μM, no membranes
[1] = biological target: T1, Sec7 domain of ARNO (Homo sapiens, UniProt Q99418)
T1 construct: ARNO^Sec7 (50-256), BIG1^Sec7 (691-889); made in house
T1 sequence (Q99418 50-256): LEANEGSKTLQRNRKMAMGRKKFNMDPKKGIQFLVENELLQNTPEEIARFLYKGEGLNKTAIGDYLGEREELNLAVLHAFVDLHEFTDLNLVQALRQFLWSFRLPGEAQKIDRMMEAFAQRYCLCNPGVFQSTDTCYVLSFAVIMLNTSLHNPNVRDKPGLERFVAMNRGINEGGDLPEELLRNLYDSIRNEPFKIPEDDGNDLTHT
Method: (§1) The effect of Bragsin1 on the GEF efficiency of representative human ArfGEFs was evaluated by fluorescence kinetics using highly purified recombinant Arf GTPases and ArfGEFs. In a first series of assays, the Sec7 domains of BIG1, a Golgi ArfGEF, and of ARNO, EFA6a and BRAG2, which function at the plasma membrane, were used. When tested in solution, Bragsin1 had no effect on the activation of Arf1 by any of these Sec7 domains (FIGS. 2a and 14). Separately, we reconstituted the activation of myristoylated Arf1 by the same ArfGEFs on liposomes using ArfGEF constructs that contain a membrane-binding domain (DCB-HUS domain for BIG1, PH domains for the other GEFs). […] BRAG2 activates several Arf isoforms, including the plasma membrane-located Arf6 isoform. […] Bragsin1 and Bragsin2 have the same IC50 towards BRAG2 ([…]) according to dose-response analysis, confirming that Bragsin1 and Bragsin2 can be used interchangeably (FIG. 2d). The specific inhibition of BRAG2 by Bragsin in vitro predicts that BRAG2 silencing by siRNA should yield the same phenotype as treatment by the small molecule. Silencing of BRAG2 induced the redistribution of TGN46 into tubular or punctate structures, which phenocopied the effects induced by Bragsin (FIGS. 2e, 17 and 18). […] Silencing of ARNO, which is located at the plasma membrane, had no effect on TGN46 distribution. Overexpression of BRAG2-mCherry rescued the dispersion of the TGN46 structure induced by Bragsin, which is consistent with the silencing experiments (FIG. 2f). Bragsin is a specific inhibitor of the ArfGEF BRAG2 in vitro and in cells according to these experiments. These oexperiments identify a mechanism of inhibition that requires the membrane to manifests itself. […]
(§2) Nucleotide exchange kinetics were monitored by tryptophan fluorescence with excitation/emission wavelengths of 292/340 nm using a Cary Eclipse fluorimeter (Varian) at 37° C. and under continuous stirring as described in ^50,51. For specificity assays, 50 μM of Bragsin1 or 0.25% DMSO were incubated for 2 min at 37° C. in HKM buffer (50 mM HEPES pH 7.4, 120 mM potassium acetate, 1 mM MgCl2 and 1 mM DTT) with either 1 μM of N-terminally truncated Arf-GDP and 100 nM of indicated Sec7 domain (in solution) or 0.4 μM of ^myrArf1 in the presence of 100 μM of liposomes and 2 to 100 nM of ArfGEFs as described in (Benabdi, S. et al. Biochemistry 56, 5125-5133 (2017) and Peurois, F. et al. Biochem J 474, 1259-1272 (2017). Nucleotide exchange rates (kobs) were determined from monoexponential fits and means are given as the percentage of control activity±SD. […]

[2] = biological target: T2, Sec7 domain of BIG1 (Homo sapiens, UniProt Q9Y6D6)
T2 construct: BIG1^Sec7 (691-889), BIG1^DcbHusSec7 (2-888); made in house
T2 sequence (Q9Y6D6 691-889): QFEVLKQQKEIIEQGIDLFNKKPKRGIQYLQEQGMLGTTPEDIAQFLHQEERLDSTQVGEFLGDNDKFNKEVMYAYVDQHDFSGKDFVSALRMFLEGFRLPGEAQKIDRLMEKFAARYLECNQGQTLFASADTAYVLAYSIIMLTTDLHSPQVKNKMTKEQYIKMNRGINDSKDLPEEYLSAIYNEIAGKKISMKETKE
Method: as §1, §2

[3] = biological target: T3, Sec7 domain of BRAG2 (Homo sapiens, UniProt Q6DN90)
T3 construct: human BRAG2^Sec7 (390-594) and BRAG2^Sec7PH (390-811); made in house
Method: as §1, §2

[4] = biological target: T4, Sec7 domain of EFA6a (Homo sapiens, UniProt A5PKW4)
T4 construct: human EFA6^Sec7 (527-727) and EFA6^Sec7PHCt (527-1024); made in house
Method: as §1, §2

T3 sequence (Q6DN90 512-716): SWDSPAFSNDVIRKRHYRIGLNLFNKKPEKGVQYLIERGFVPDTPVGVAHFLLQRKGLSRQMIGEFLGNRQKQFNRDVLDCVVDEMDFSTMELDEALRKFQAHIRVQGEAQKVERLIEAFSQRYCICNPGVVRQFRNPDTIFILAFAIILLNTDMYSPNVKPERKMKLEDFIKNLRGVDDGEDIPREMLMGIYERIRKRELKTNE
T4 sequence (A5PKW4 527-727): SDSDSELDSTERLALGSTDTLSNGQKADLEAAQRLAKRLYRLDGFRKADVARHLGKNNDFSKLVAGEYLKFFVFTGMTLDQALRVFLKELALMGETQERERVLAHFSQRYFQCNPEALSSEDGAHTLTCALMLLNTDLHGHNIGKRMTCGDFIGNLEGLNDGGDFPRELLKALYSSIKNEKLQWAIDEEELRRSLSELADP

Effect on activation of Arf1 by Sec7 domain in solution [1]: no effect
Effect on activation of Arf1 by Sec7 domain in solution [2]: no effect
Effect on activation of Arf1 by Sec7 domain in solution [3]: no effect
Effect on activation of Arf1 by Sec7 domain in solution [4]: no effect
SMILES: Cc1ccc2oc(C(F)(F)F)cc(=O)c2c1[N+](=O)[O-] [Bragsin1, 6-methyl-5-nitro-2-(trifluoromethyl)-4H-chromen-4-one]
